Assay results reported in patent US8841310B2, “Combinations of a pyrimidine containing NNRTI with RT inhibitors” (Janssen R & D Ireland, priority 2003, dated 2014).

Columns and labels:
wild type HIV-1 = test: Development of resistance in vitro, MT4 cells, high multiplicity of infection; assay type: cell-based; conditions: wild type HIV-1, >1 infectious virus per cell, all tested concentrations, total 30 days
Source text: Emerging virus was collected for pheno- and genotyping. Cultures without evidence of virus replication were further sub-cultivated in the presence of the same concentration of inhibitor for a total duration of 30 days (10 passages).

[1] = Cardiovascular and pulmonary safety in vitro; conditions: concentrations covering or exceeding the anti-viral concentration in vitro
[2] = tested on: monotropic HIV strain Ba-L; test: MO-DC/CD4(+) T cell co-culture model of sexual HIV transmission; assay type: cell-based; conditions: Human immunodeficiency virus 1, BAL, T-cell, 336 h, read-out: EC50 (concentration suppressing 50% of viral replication)
Source text: Immature monocyte derived dendritic cells (immMO-DC) represent a good model for interstitial dendritic cells, which are early targets during sexual HIV transmission and important initiators of the immune response. These immMO-DC were used in “in vitro” models to test the prevention of HIV infection via sexual intercourse or related intimate contact between partners.
For instance, in one model, monocyte-derived dendritic cells (MO-DC) were infected for 2-hours with the monotropic HIV strain Ba-L at a multiplicity of infection (MOI) of 10^−3. After infection, cells were washed 6 times and resuspended in 10% BCS at 400.000 cells/ml. Autologous CD4(+) T cells were purified out of the lymphocyte fraction of the same elutration as the MO-DC and used at a concentration of 2×10^6 cells/ml ((ratio MO-DC/CD4(+) T: 1/5).
A serial dilution of a compound of formula (I) (test compound) was added to the MO-DC/CD4(+) T cell co-cultures. Each experiment was done in 96-well plates, in which each cup contained 50 μl of MO-DC, 50 μl of CD4(+) T cells and 100 μl of test compound. Half of the culture medium, with test compound, was refreshed twice weekly. Supernatants were analysed in ELISA after 14 days of culture. To determine antiviral activity, the test compound concentration able to suppress 50% of the viral replication at the end of the primary cultures (EC50) was measured.

SMILES: Cc1cc(/C=C/C#N)cc(C)c1Nc1ccnc(Nc2ccc(C#N)cc2)n1 [E-TMC278, (E)-4-[[4-[[4-(2-cyanoethenyl)-2,6-dimethylphenyl]-amino]-2-pyrimidinyl]-amino]-benzonitrile]
- time to emergence of resistant virus (wild type HIV-1): > 30 days
- effect on cardiovascular and pulmonary parameters in vitro [1]: little or no effect
- EC50 [2]: 0.55 nM
